Data published in ChEMBL document CHEMBL5360614, “Quinoline Thiourea-Based Zinc Ionophores with Antibacterial Activity” (J Med Chem, 2023).
Values after ≈ are worked out from the molar mass of the structure shown. Values belong to the compound of their own block, whether it stands above or below them. Active and inactive are the calls of the source. The rule behind the calls is not given here.

What was measured:
Escherichia coli = experiment: Antibacterial activity against Escherichia coli MTCC 1687 assessed as reduction in bacterial growth incubated for 14 to 16 hrs by microbroth dilution method; format: functional; settings: time 14-16 hrs
Staphylococcus aureus [1] = experiment: Antibacterial activity against Staphylococcus aureus MTCC-96 assessed as reduction in bacterial growth incubated for 14 to 16 hrs by microbroth dilution method; format: functional; settings: time 14-16 hrs
Staphylococcus aureus [2] = experiment: (§1) Antibacterial activity against gentamicin-and methicillin-resistant Staphylococcus aureus ATCC 33592 assessed as reduction in bacterial growth incubated for 14 to 16 hrs by microbroth dilution method; format: functional; settings: time 14-16 hrs
Staphylococcus aureus [3] = experiment: as §1, with “hrs in presence of 1 uM 1-(2-(1H-benzo[d]imidazol-1-yl)quinolin-8-yl)-3-(3,5-bis(trifluoromethyl)phenyl)thiourea and 200 uM ZnCl2” for “hrs”; format: functional; settings: time 14-16 hrs
Staphylococcus aureus [4] = experiment: as §1, with “hrs in presence of 1 uM 1-(2-(1H-benzo[d]imidazol-1-yl)quinolin-8-yl)-3-(3,5-bis(trifluoromethyl)phenyl)thiourea and 100 uM ZnCl2” for “hrs”; format: functional; settings: time 14-16 hrs
Staphylococcus aureus [5] = experiment: (§2) Antibacterial activity against gentamicin-and methicillin-resistant Staphylococcus aureus ATCC 33592 assessed as reduction in bacterial growth incubated for 14 to 16 hrs in presence of 200 uM ZnCl2 by microbroth dilution method; format: functional; settings: time 14-16 hrs
Staphylococcus aureus [6] = experiment: as §2, with “1” for “200”, “1-(2-(1H-benzo[d]imidazol-1-yl)quinolin-8-yl)-3-(3,5-bis(trifluoromethyl)phenyl)thiourea” for “ZnCl2”; format: functional; settings: time 14-16 hrs
Staphylococcus aureus [7] = experiment: Potency index, ratio of compound MIC to compound MIC in presence of 1 uM 1-(2-(1H-benzo[d]imidazol-1-yl)quinolin-8-yl)-3-(3,5-bis(trifluoromethyl)phenyl)thiourea and 200 uM ZnCl2 for antibacterial activity against gentamicin-and methicillin-resistant Staphylococcus aureus ATCC 33592; format: functional
Staphylococcus aureus [8] = experiment: Disruption of membrane integrity in Staphylococcus aureus MTCC-96 assessed as increase in fluorescence intensity at 4 to 8 uM by PI staining based fluorescence analysis; format: functional, organism-based; settings: dose 4-8 µM
Staphylococcus aureus [9] = experiment: Antibacterial activity against Staphylococcus aureus MTCC-96 assessed as reduction in bacterial growth incubated for 14 to 16 hrs in presence of 100 to 400 uM CuCl2 by microbroth dilution method; format: functional, organism-based; settings: time 14-16 hrs
Erythrocyte = experiment: Hemolytic activity in human Red blood cells assessed as hemolysis rate at 1.6 to 50 uM incubated for 1 to 24 hrs in presence of ZnCl2 by absorbance based analysis; format: toxicity, cell-based; settings: dose lower 1.6 µM, time lower 1 hrs, dose upper 50 µM, time upper 24 hrs
MCF-10A = experiment: Cytotoxicity against human MCF-10A cells assessed as reduction in cell viability at 1 to 100 uM incubated for 44 hrs by MTT assay; format: toxicity, cell-based; settings: dose 1-100 µM
Lipid bilayer [10] = experiment: (§3) Induction of ionophore activity across EYPC:CHOL (8:2) large unilamellar vesicles assessed as transmembrane cation transport by measuring decrease in fluorescence intensity for HPTS dye preincubated for 3 mins followed by NaCl addition and mesured after 7.5 mins by HPTS dye based fluorescence spectrophotometric analysis; settings: time 10.5 min
Staphylococcus aureus [11] = experiment: Antibacterial activity against Staphylococcus aureus MTCC-96 assessed as fold reduction in bacterial growth incubated for 14 to 16 hrs in presence of 400 uM ZnCl2 by microbroth dilution method; format: functional; settings: time 14-16 hrs
Lipid bilayer [12] = experiment: as §3, with “MgCl2” for “NaCl”; settings: time 10.5 min
Staphylococcus aureus [13] = experiment: Bactericidal activity against Staphylococcus aureus MTCC-96 at 2 times MIC incubated for 2 hrs by time kill assay; format: functional, organism-based
HCT-116 = experiment: Cytotoxicity against human HCT-116 cells assessed as reduction in cell viability at 1 to 100 uM incubated for 44 hrs by MTT assay; format: toxicity, cell-based; settings: hct-116, 44 h, dose 1-100 µM
Staphylococcus aureus [14] = experiment: Antibacterial activity against Staphylococcus aureus MTCC-96 assessed as reduction in bacterial growth incubated for 14 to 16 hrs in presence of 100 to 400 uM ZnSO4 by microbroth dilution method; format: functional, organism-based; settings: time 14-16 hrs
Staphylococcus aureus [15] = experiment: Bactericidal activity against Staphylococcus aureus MTCC-96 at 2 times MIC incubated for 2 hrs in presence of ZnCl2 by time kill assay; format: functional, organism-based
Staphylococcus aureus [16] = experiment: Antibacterial activity against Staphylococcus aureus MTCC-96 assessed as reduction in bacterial growth incubated for 14 to 16 hrs in presence of 100 to 400 uM MgCl2 by microbroth dilution method; format: functional, organism-based; settings: time 14-16 hrs
Lipid bilayer [17] = experiment: (§4) Induction of ionophore activity across EYPC:CHOL (8:2) large unilamellar vesicles assessed as transmembrane Zn2+ ion transport by measuring decrease in fluorescence intensity for HPTS dye at 10 uM preincubated for 3 mins followed by ZnCl2 addition and mesured after 7.5 mins by HPTS dye based fluorescence spectrophotometric analysis; settings: filed as opener, time 10.5 min
Lipid bilayer [18] = experiment: as §4, with “anion” for “Zn2+ ion”; settings: filed as opener, time 10.5 min
Lipid bilayer [19] = experiment: as §3, with “anion” for “cation”, “Zn(NO3)2” for “NaCl”; settings: filed as opener; time 10.5 min
Staphylococcus aureus [20] = experiment: Antibacterial activity against Staphylococcus aureus MTCC-96 assessed as reduction in bacterial growth incubated for 14 to 16 hrs in presence of 100 to 400 uM CsCl by microbroth dilution method; format: functional, organism-based; settings: time 14-16 hrs
Staphylococcus aureus [21] = experiment: Disruption of membrane integrity in Staphylococcus aureus MTCC-96 assessed as change in cocci shape in presence of Zn2+ ion by FE-SEM analysis; format: functional, organism-based
Lipid bilayer [22] = experiment: as §3, with “LiCl” for “NaCl”; settings: time 10.5 min
MDA-MB-231 = experiment: Cytotoxicity against human MDA-MB-231 cells assessed as reduction in cell viability at 1 to 100 uM incubated for 44 hrs by MTT assay; format: toxicity, cell-based; settings: mda-mb-231, 44 h, dose 1-100 µM
Staphylococcus aureus [23] = experiment: Antibacterial activity against Staphylococcus aureus MTCC-96 assessed as reduction in bacterial growth incubated for 14 to 16 hrs in presence of 100 to 400 uM CaCl2 by microbroth dilution method; format: functional, organism-based; settings: time 14-16 hrs
Lipid bilayer [24] = experiment: as §3, with “anion” for “cation”, “ZnBr2” for “NaCl”; settings: filed as opener; time 10.5 min
Staphylococcus aureus [25] = experiment: Antibacterial activity against Staphylococcus aureus MTCC-96 assessed as resistance development by measuring fold increase in MIC and measured after 30 days in presence of ZnCl2 by microbroth dilution method; format: functional, organism-based; settings: time 30.0 day
Lipid bilayer [26] = experiment: as §3, with “KCl” for “NaCl”; settings: time 10.5 min
Lipid bilayer [27] = experiment: as §3, with “CsCl” for “NaCl”; settings: time 10.5 min
Staphylococcus aureus [28] = experiment: Antibacterial activity against Staphylococcus aureus MTCC-96 assessed as resistance development by measuring fold increase in MIC and measured after 30 days by microbroth dilution method; format: functional; settings: time 30 day
Staphylococcus aureus [29] = experiment: Bactericidal activity against Staphylococcus aureus MTCC-96 assessed as reduction in bacterial colony formation at 2 times MIC incubated upto 8 hrs in presence of ZnCl2 by agar-plate method; format: functional, organism-based
Lipid bilayer [30] = experiment: as §3, with “RbCl” for “NaCl”; settings: time 10.5 min
Staphylococcus aureus [31] = experiment: Antibacterial activity against Staphylococcus aureus MTCC-96 assessed as reduction in bacterial growth incubated for 14 to 16 hrs in presence of 100 to 400 uM MnCl2 by microbroth dilution method; format: functional, organism-based; settings: time 14-16 hrs
Staphylococcus aureus [32] = experiment: Antibacterial activity against Staphylococcus aureus MTCC-96 assessed as reduction in bacterial growth incubated for 14 to 16 hrs in presence of EGTA by microbroth dilution method; format: functional; settings: time 14-16 hrs
Lipid bilayer [33] = experiment: as §3, with “CaCl2” for “NaCl”; settings: time 10.5 min
A549 = experiment: Cytotoxicity against human A549 cells assessed as reduction in cell viability at 1 to 100 uM incubated for 44 hrs by MTT assay; format: toxicity, cell-based; settings: a549, 44 h, dose 1-100 µM
Lipid bilayer [34] = experiment: as §3, with “anion” for “cation”, “ZnSO4” for “NaCl”; settings: filed as opener; time 10.5 min
Cell membrane = experiment: Induction of cell membrane depolarization in Staphylococcus aureus MTCC-96 assessed as change in fluorescence intensity at 3.13 uM by DiSC3-5 dye based fluorescence method; format: subcellular
Staphylococcus aureus [35] = experiment: Antibacterial activity against Staphylococcus aureus MTCC-96 assessed as reduction in bacterial growth incubated for 14 to 16 hrs in presence of 100 to 400 uM Zn(NO3)2 by microbroth dilution method; format: functional, organism-based; settings: time 14-16 hrs
Lipid bilayer [36] = experiment: as §3, with “MnCl2” for “NaCl”; settings: time 10.5 min
Staphylococcus aureus [37] = experiment: Antibacterial activity against Staphylococcus aureus MTCC-96 assessed as reduction in bacterial growth incubated for 14 to 16 hrs in presence of 400 uM ZnCl2 by microbroth dilution method; format: functional; settings: time 14-16 hrs
MCF7 = experiment: Cytotoxicity against human MCF7 cells assessed as reduction in cell viability at 1 to 100 uM incubated for 44 hrs by MTT assay; format: toxicity, cell-based; settings: mcf7, 44 h, dose 1-100 µM
Staphylococcus aureus [38] = experiment: Antibacterial activity against Staphylococcus aureus MTCC-96 assessed as reduction in bacterial growth incubated for 14 to 16 hrs in presence of 100 to 400 uM ZnBr2 by microbroth dilution method; format: functional, organism-based; settings: time 14-16 hrs
Lipid bilayer [39] = experiment: as §3, with “CuCl2” for “NaCl”; settings: filed as opener; time 10.5 min

Compound: FC(F)(F)c1cc(NC(=S)Nc2cccc3ccc(Nc4nc5ccccc5[nH]4)nc23)cc(C(F)(F)F)c1
MIC (Escherichia coli): > 50 µM
MIC (Staphylococcus aureus [1]): > 50 µM
MIC (Staphylococcus aureus [2]): > 50 µM

Compound: CC(C)(O/N=C(\C(=O)N[C@@H]1C(=O)N2C(C(=O)[O-])=C(C[n+]3ccccc3)CS[C@H]12)c1csc(N)n1)C(=O)O [CEFTAZIDIME]
MIC (Staphylococcus aureus [3]): 0.15 µM
MIC (Staphylococcus aureus [4]): 5.7 µM
MIC (Staphylococcus aureus [5]): 229 µM
MIC (Staphylococcus aureus [6]): 229 µM
Ratio (Staphylococcus aureus [7]): 1524
MIC (Staphylococcus aureus [2]): 229 µM (≈ 125 µg/mL)

Compound: FC(F)(F)c1cc(NC(=S)Nc2cccc3ccc(-n4ccc5ccccc54)nc23)cc(C(F)(F)F)c1
MIC (Escherichia coli): > 50 µM
MIC (Staphylococcus aureus [1]): 6.25 µM (≈ 3.32 µg/mL)
MIC (Staphylococcus aureus [2]): 6.25 µM (≈ 3.32 µg/mL)

MIC (Staphylococcus aureus [1]): 1870 µM
Compound: CUPRIC CHLORIDE

Compound: CC1(C)S[C@@H]2[C@H](NC(=O)[C@H](N)c3ccc(O)cc3)C(=O)N2[C@H]1C(=O)O [AMOXICILLIN]
MIC (Staphylococcus aureus [3]): 0.05 µM
MIC (Staphylococcus aureus [4]): 4.09 µM
MIC (Staphylococcus aureus [5]): 17 µM
MIC (Staphylococcus aureus [6]): 17 µM
Ratio (Staphylococcus aureus [7]): 341
MIC (Staphylococcus aureus [2]): 17 µM (≈ 6.21 µg/mL)

Compound: FC(F)(F)c1cc(NC(=S)Nc2cccc3ccc(-n4cccc4)nc23)cc(C(F)(F)F)c1
MIC (Escherichia coli): > 50 µM
MIC (Staphylococcus aureus [1]): > 50 µM
MIC (Staphylococcus aureus [2]): > 50 µM

Compound: FC(F)(F)c1cc(NC(=S)Nc2cccc3cccnc23)cc(C(F)(F)F)c1
Activity (Staphylococcus aureus [8]): inactive
Activity (Staphylococcus aureus [9]): inactive
MIC (Escherichia coli): > 50 µM
Activity (Erythrocyte): Non-Toxic
Activity (MCF-10A): Non-Toxic
Activity (Lipid bilayer [10]): inactive
fold change (FC) (Staphylococcus aureus [11]): 6.65
Activity (Lipid bilayer [12]): inactive
Activity (Staphylococcus aureus [13]): Active
Activity (HCT-116): Non-Toxic
Activity (Staphylococcus aureus [14]): Active
Activity (Staphylococcus aureus [15]): Active
Activity (Staphylococcus aureus [16]): inactive
Activity (Lipid bilayer [17]): Active
Activity (Lipid bilayer [18]): Active
Activity (Lipid bilayer [19]): Active
Activity (Staphylococcus aureus [20]): inactive
Activity (Staphylococcus aureus [21]): inactive
Activity (Lipid bilayer [22]): inactive
Activity (MDA-MB-231): Non-Toxic
Activity (Staphylococcus aureus [23]): inactive
Activity (Lipid bilayer [24]): Active
Activity (Staphylococcus aureus [25]): Active
Activity (Lipid bilayer [26]): inactive
Activity (Lipid bilayer [27]): inactive
fold change (FC) (Staphylococcus aureus [28]): 16
Activity (Staphylococcus aureus [29]): Active
Activity (Lipid bilayer [30]): inactive
Activity (Staphylococcus aureus [31]): inactive
MIC (Staphylococcus aureus [32]): 6.25 µM
MIC (Staphylococcus aureus [1]): 3.13 µM (≈ 1.3 µg/mL)
Activity (Lipid bilayer [33]): inactive
Activity (A549): Non-Toxic
Activity (Lipid bilayer [34]): Active
Activity (Cell membrane): inactive
Activity (Staphylococcus aureus [35]): Active
Activity (Lipid bilayer [36]): inactive
MIC (Staphylococcus aureus [37]): 0.47 µM
MIC (Staphylococcus aureus [2]): 3.13 µM (≈ 1.3 µg/mL)
Activity (MCF7): Non-Toxic
Activity (Staphylococcus aureus [38]): Active
Activity (Lipid bilayer [39]): Active

Compound: CN(C)[C@@H]1C(O)=C(C(N)=O)C(=O)[C@@]2(O)C(O)=C3C(=O)c4c(O)cccc4[C@@](C)(O)[C@H]3C[C@@H]12 [TETRACYCLINE]
MIC (Staphylococcus aureus [3]): 0.18 µM
MIC (Staphylococcus aureus [4]): 0.87 µM
MIC (Staphylococcus aureus [5]): 168 µM
MIC (Staphylococcus aureus [6]): 168 µM
Ratio (Staphylococcus aureus [7]): 933
MIC (Staphylococcus aureus [2]): 168 µM (≈ 74.7 µg/mL)

Compound: [Cl-].[Cl-].[Zn+2] [ZINC CHLORIDE]
MIC (Escherichia coli): 2000 µM
MIC (Staphylococcus aureus [1]): 1560 µM
MIC (Staphylococcus aureus [2]): 1560 µM
